The target in one assay is T1, 5HT2C receptors (Homo sapiens, UniProt P28335).
T1 sequence (P28335 33-458): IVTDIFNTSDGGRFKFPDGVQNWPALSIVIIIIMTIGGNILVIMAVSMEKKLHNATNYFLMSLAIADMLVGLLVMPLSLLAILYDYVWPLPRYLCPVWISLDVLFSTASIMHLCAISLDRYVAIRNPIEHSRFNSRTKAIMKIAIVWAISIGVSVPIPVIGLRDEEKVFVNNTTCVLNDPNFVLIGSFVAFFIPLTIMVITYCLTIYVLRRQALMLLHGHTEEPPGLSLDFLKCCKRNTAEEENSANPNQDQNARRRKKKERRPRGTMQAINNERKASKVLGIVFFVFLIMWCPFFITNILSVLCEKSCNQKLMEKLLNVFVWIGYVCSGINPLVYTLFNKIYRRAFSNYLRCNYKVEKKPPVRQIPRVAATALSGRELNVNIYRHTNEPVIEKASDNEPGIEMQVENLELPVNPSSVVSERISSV
Description: Human 5-HT2C functional high throughput screening assay in CHO-K1 cells (calcium flux). The format is cell-based. The arrangement: expressed in transfected cells; host or cells: CHO-K1 cells. The conditions noted are these: for Emax: CHO-K1, 5-HT2C, maximum functional response as percentage relative to the effect of serotonin; for EC50: CHO-K1 cells, calcium flux. A digest of the protocol: (§1)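 CHO-K1 cells overexpressing human 5-HT2C or 5-HT2B were serum-starved overnight and loaded with Ca4 dye plus 2.5 mM probenecid for 60 min at RT. Calcium flux was read on FLIPR (ex 480/em 530 nm, 25° C) over 3 min after addition of compound, tested from 10 μM in 1:10 steps over 6 points with 0.2% DMSO. EC50 and Emax relative to serotonin came from a 4-parameter logistic fit.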
A general note: Calcium assays in cells follow changes in intracellular calcium, usually with a dye or a luminescent sensor.

The next assay deals with T2, 5HT2B receptors (Homo sapiens, UniProt P41595).
T2 construct: expressed in transfected cells; host or cells: CHO-K1 cells
T2 sequence (P41595 whole entry): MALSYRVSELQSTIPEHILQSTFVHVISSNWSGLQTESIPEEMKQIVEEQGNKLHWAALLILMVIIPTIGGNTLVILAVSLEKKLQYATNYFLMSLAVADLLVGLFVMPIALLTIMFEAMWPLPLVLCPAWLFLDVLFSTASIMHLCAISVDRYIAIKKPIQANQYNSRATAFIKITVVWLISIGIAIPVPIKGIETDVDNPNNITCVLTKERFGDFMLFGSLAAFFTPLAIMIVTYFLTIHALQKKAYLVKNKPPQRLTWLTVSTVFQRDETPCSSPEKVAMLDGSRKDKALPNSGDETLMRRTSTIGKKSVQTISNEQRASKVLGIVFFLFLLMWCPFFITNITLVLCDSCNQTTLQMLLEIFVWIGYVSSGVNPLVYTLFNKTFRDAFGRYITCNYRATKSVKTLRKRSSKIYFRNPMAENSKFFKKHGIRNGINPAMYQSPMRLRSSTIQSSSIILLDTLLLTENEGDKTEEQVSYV
Description: Human 5-HT2B functional high throughput screening assay in CHO-K1 cells (calcium flux). The format is cell-based. The conditions noted are these: for EC50: CHO-K1 cells, calcium flux. A digest of the protocol:
as §1

[1] abbreviates: 5-HT2C agonist activity, read-out: EC50.
Setting [2] is: 5-HT2B agonist activity, read-out: EC50.
Where [3] appears, read: 5-HT2B, maximum functional response as percentage relative to the effect of serotonin.

Read-outs that look alike come from different tables or passages of the source.

This note sets out measurements from patent publication US8846951B2 (AbbVie Inc., priority 2009, dated 2014).

Usually Emax stands for the greatest response seen or fitted, relative to the assay's reference. Broadly, the EC50 is the concentration at which the effect is half-maximal.

On to `COc1ccc2c(c1)OCC[C@H]1CNC[C@H]21` (relative stereo) [Example 280, Trans-8-methoxy-2,3,3a,4,5,10b-hexahydro-1H-[1]benzoxepino[4,5-c]pyrrole], for which the Emax on 5HT2C receptors came out at 100%; on 5HT2B receptors (CHO-K1), 60%. Further, the EC50 at 5HT2C receptors (EC50, 5-HT2C agonist activity) came to 0.09 µM; on 5HT2B receptors (EC50, 5-HT2B agonist activity) it was 0.1 µM.

Turning to `Fc1cccc2c1OCC[C@H]1CNC[C@H]21` (relative stereo) [Example 281, Trans-7-fluoro-2,3,3a,4,5,10b-hexahydro-1H-[1]benzoxepino[4,5-c]pyrrole], the results for the Emax at 5HT2C receptors and on 5HT2B receptors (CHO-K1) were 100% and 90%, respectively. The EC50 at 5HT2C receptors (EC50, 5-HT2C agonist activity) came to 0.008 µM; at 5HT2B receptors (EC50, 5-HT2B agonist activity), 0.1 µM.

As to `FC(F)(F)Oc1ccc2c(c1)[C@H]1CNC[C@@H]1CCO2` (relative stereo) [Example 282, Trans-9-(trifluoromethoxy)-2,3,3a,4,5,10b-hexahydro-1H-[1]benzoxepino[4,5-c]pyrrole], the half-maximal effective concentration (EC50) came out at 0.9 µM at 5HT2C receptors (setting [1]) and 0.2 µM at 5HT2B receptors (setting [2]). The Emax at 5HT2C receptors was 70%; at 5HT2B receptors (CHO-K1) it was 30%.

In the case of `Fc1cc(F)c2c(c1)[C@H]1CNC[C@@H]1CCO2` (relative stereo) [Example 283, Trans-7,9-difluoro-2,3,3a,4,5,10b-hexahydro-1H-[1]benzoxepino[4,5-c]pyrrole], the Emax on 5HT2C receptors was determined as 80%; on 5HT2B receptors (CHO-K1) it was 50%. The EC50 amounted to 0.8 µM at 5HT2C receptors (EC50, 5-HT2C agonist activity) and 0.06 µM on 5HT2B receptors (EC50, 5-HT2B agonist activity).

Take `Fc1ccc2c(c1)[C@@H]1CNC[C@@H]1CCO2` (relative stereo) [Example 284, Cis-9-fluoro-2,3,3a,4,5,10b-hexahydro-1H-[1]benzoxepino[4,5-c]pyrrole]: the Emax on 5HT2C receptors came to 85%; at 5HT2B receptors (CHO-K1), 55%. The EC50 at 5HT2C receptors (EC50, 5-HT2C agonist activity) came to 0.4 µM; on 5HT2B receptors (EC50, 5-HT2B agonist activity), 0.01 µM.

On to `FC(F)(F)Oc1cccc2c1OCC[C@H]1CNC[C@H]21` (relative stereo) [Example 285, Trans-7-(trifluoromethoxy)-2,3,3a,4,5,10b-hexahydro-1H-[1]benzoxepino[4,5-c]pyrrole], for which the Emax on 5HT2C receptors was 100%; at 5HT2B receptors (CHO-K1), 90%. For the same molecule, the EC50 on 5HT2C receptors (EC50, 5-HT2C agonist activity) was under 0.0001 µM; on 5HT2B receptors (EC50, 5-HT2B agonist activity), 0.009 µM.

As for `Fc1ccc2c(c1)[C@H]1CNC[C@@H]1CCO2` (relative stereo) [Example 286, Trans-9-fluoro-2,3,3a,4,5,10b-hexahydro-1H-[1]benzoxepino[4,5-c]pyrrole], the maximal response (Emax) amounted to 90% on 5HT2C receptors and 60% on 5HT2B receptors (CHO-K1). The concentration for a half-maximal effect (EC50) turned out to be 0.3 µM on 5HT2C receptors (EC50, 5-HT2C agonist activity) and 0.05 µM at 5HT2B receptors (EC50, 5-HT2B agonist activity).

In the case of `Fc1cccc2c1[C@H]1CNC[C@@H]1CCO2` (relative stereo) [Example 287, Trans-10-fluoro-2,3,3a,4,5,10b-hexahydro-1H-[1]benzoxepino[4,5-c]pyrrole], the Emax at 5HT2C receptors is 95%; on 5HT2B receptors (CHO-K1) it was 40%. The EC50 came out at 0.05 µM on 5HT2C receptors (EC50, 5-HT2C agonist activity) and 0.3 µM at 5HT2B receptors (EC50, 5-HT2B agonist activity).

For the molecule `Fc1ccc(F)c2c1OCC[C@H]1CNC[C@@H]21` (relative stereo) [Example 288, Cis-7,10-difluoro-2,3,3a,4,5,10b-hexahydro-1H-[1]benzoxepino[4,5-c]pyrrole], the results for the maximum response (Emax) on 5HT2C receptors and at 5HT2B receptors (CHO-K1) were 90% and 50%, respectively. For the same molecule, the EC50 was 0.04 µM on 5HT2C receptors (EC50, 5-HT2C agonist activity) and 0.7 µM on 5HT2B receptors (EC50, 5-HT2B agonist activity).

As to `Fc1ccc(F)c2c1OCC[C@H]1CNC[C@H]21` (relative stereo) [Example 289, Trans-7,10-difluoro-2,3,3a,4,5,10b-hexahydro-1H-[1]benzoxepino[4,5-c]pyrrole], the values for the Emax on 5HT2C receptors and on 5HT2B receptors (CHO-K1) were 90% and 95%, respectively. Further, the EC50 at 5HT2C receptors (EC50, 5-HT2C agonist activity) was 0.007 µM; on 5HT2B receptors (EC50, 5-HT2B agonist activity) it was 0.1 µM.

For the molecule `Cc1ccc2c(c1)[C@H]1CNC[C@@H]1CCO2` (relative stereo) [Example 290, Trans-9-methyl-2,3,3a,4,5,10b-hexahydro-1H-[1]benzoxepino[4,5-c]pyrrole], the Emax turned out to be 80% at 5HT2C receptors and 35% on 5HT2B receptors (CHO-K1). The concentration giving a half-maximal response (EC50) stood at 0.1 µM on 5HT2C receptors (EC50, 5-HT2C agonist activity) and 0.02 µM at 5HT2B receptors (EC50, 5-HT2B agonist activity).

With `Cc1cccc2c1OCC[C@H]1CNC[C@H]21` (relative stereo) [Example 291, Trans-7-methyl-2,3,3a,4,5,10b-hexahydro-1H-[1]benzoxepino[4,5-c]pyrrole], the Emax at 5HT2C receptors was found to be 95%; on 5HT2B receptors (CHO-K1) it was 60%. Also, the 50% effective concentration (EC50) worked out at 0.0004 µM on 5HT2C receptors (EC50, 5-HT2C agonist activity) and 0.01 µM on 5HT2B receptors (EC50, 5-HT2B agonist activity).

On to `Clc1cccc2c1OCC[C@H]1CNC[C@@H]21` (relative stereo) [Example 295, Cis-7-chloro-2,3,3a,4,5,10b-hexahydro-1H-[1]benzoxepino[4,5-c]pyrrole], for which the Emax on 5HT2C receptors is 100%; at 5HT2B receptors (CHO-K1), 40%. The EC50 was 0.01 µM at 5HT2C receptors (EC50, 5-HT2C agonist activity) and 0.06 µM at 5HT2B receptors (EC50, 5-HT2B agonist activity).

As to `CC(=O)c1ccc(-c2ccc3c(c2)C(=O)NC[C@@H]2CNC[C@@H]32)s1` (relative stereo) [Example 296, Trans-8-(5-acetyl-2-thienyl)-2,3,3a,4,5,10b-hexahydropyrrolo[3,4-d][2]benzazepin-6(1H)-one], the EC50 on 5HT2C receptors (setting [1]) is 0.001 µM; at 5HT2B receptors (setting [2]), over 10 µM. In addition, the maximum response (Emax) at 5HT2C receptors (read-out: Emax) was 100%; on 5HT2B receptors (setting [3]), “inactive”.

Take `CC(C)CNc1ccc2c(c1)C(=O)NC[C@@H]1CN(C)C[C@@H]21` (relative stereo) [Example 297, Trans-8-(isobutylamino)-2-methyl-2,3,3a,4,5,10b-hexahydropyrrolo[3,4-d][2]benzazepin-6(1H)-one]: the Emax on 5HT2C receptors is 80%; at 5HT2B receptors (setting [3]) it was “inactive”. In addition, the concentration giving a half-maximal response (EC50) was 0.1 µM on 5HT2C receptors (EC50, 5-HT2C agonist activity) and over 10 µM on 5HT2B receptors (EC50, 5-HT2B agonist activity).

With `CN1C[C@H]2CNC(=O)c3cc(N4CCCCC4)ccc3[C@@H]2C1` (relative stereo) [Example 298, Trans-2-methyl-8-(piperidin-1-yl)-2,3,3a,4,5,10b-hexahydropyrrolo[3,4-d][2]benzazepin-6(1H)-one], the values for the EC50 at 5HT2C receptors (setting [1]) and at 5HT2B receptors (setting [2]) were 0.4 µM and over 10 µM, respectively. The results for the Emax on 5HT2C receptors (read-out: Emax) and at 5HT2B receptors (setting [3]) were 80% and “inactive”, respectively.

As to `COc1cc(F)ccc1-c1ccc2c(c1)C(=O)NC[C@@H]1CN(C)C[C@@H]21` (relative stereo) [Example 299, Trans-8-(4-fluoro-2-methoxyphenyl)-2-methyl-2,3,3a,4,5,10b-hexahydropyrrolo[3,4-d][2]benzazepin-6(1H)-one], the EC50 on 5HT2C receptors (setting [1]) is 0.01 µM; on 5HT2B receptors (setting [2]), over 10 µM. The Emax on 5HT2C receptors (read-out: Emax) was 100%; on 5HT2B receptors (setting [3]), “inactive”.

Consider `COc1ccc(F)cc1-c1ccc2c(c1)C(=O)NC[C@@H]1CN(C)C[C@@H]21` (relative stereo) [Example 300, Trans-8-(5-fluoro-2-methoxyphenyl)-2-methyl-2,3,3a,4,5,10b-hexahydropyrrolo[3,4-d][2]benzazepin-6(1H)-one], for which the figures for the EC50 at 5HT2C receptors (setting [1]) and on 5HT2B receptors (setting [2]) were 0.05 µM and over 10 µM, respectively. For the same molecule, the Emax was 100% at 5HT2C receptors (read-out: Emax) and “inactive” on 5HT2B receptors (setting [3]).

For `COc1ccc(C(C)C)cc1-c1ccc2c(c1)C(=O)NC[C@@H]1CN(C)C[C@@H]21` (relative stereo) [Example 301, Trans-8-(5-isopropyl-2-methoxyphenyl)-2-methyl-2,3,3a,4,5,10b-hexahydropyrrolo[3,4-d][2]benzazepin-6(1H)-one], the EC50 at 5HT2C receptors (setting [1]) is 0.03 µM; at 5HT2B receptors (setting [2]) it was over 10 µM. In addition, the Emax at 5HT2C receptors (read-out: Emax) is 105%; on 5HT2B receptors (setting [3]), “inactive”.

As for `COc1cc(C)ccc1-c1ccc2c(c1)C(=O)NC[C@@H]1CN(C)C[C@@H]21` (relative stereo) [Example 302, Trans-8-(2-methoxy-4-methylphenyl)-2-methyl-2,3,3a,4,5,10b-hexahydropyrrolo[3,4-d][2]benzazepin-6(1H)-one], the EC50 is 0.07 µM at 5HT2C receptors (setting [1]) and over 10 µM on 5HT2B receptors (setting [2]). Besides, the results for the Emax on 5HT2C receptors (read-out: Emax) and at 5HT2B receptors (setting [3]) were 95% and “inactive”, respectively.

Consider `COc1ccc(-c2ccc3c(c2)C(=O)NC[C@@H]2CN(C)C[C@@H]32)c(OC)c1` (relative stereo) [Example 303, Trans-8-(2,4-dimethoxyphenyl)-2-methyl-2,3,3a,4,5,10b-hexahydropyrrolo[3,4-d][2]benzazepin-6(1H)-one], for which the results for the EC50 at 5HT2C receptors (setting [1]) and on 5HT2B receptors (setting [2]) were 0.04 µM and over 10 µM, respectively. For the same molecule, the Emax on 5HT2C receptors (read-out: Emax) is 100%; on 5HT2B receptors (setting [3]) it was “inactive”.

Turning to `CN1C[C@H]2CNC(=O)c3cc(/C=C/C4CC4)ccc3[C@@H]2C1` (relative stereo) [Example 305, Trans-8-[(E)-2-cyclopropylvinyl]-2-methyl-2,3,3a,4,5,10b-hexahydropyrrolo[3,4-d][2]benzazepin-6(1H)-one], the Emax is 90% at 5HT2C receptors and “inactive” at 5HT2B receptors (setting [3]). In addition, the EC50 at 5HT2C receptors (EC50, 5-HT2C agonist activity) is 0.006 µM; on 5HT2B receptors (EC50, 5-HT2B agonist activity), over 10 µM.
